US7566712B2, “Biaryl piperazinyl-pyridine analogues” (Neurogen Corporation, priority 2003, dated 2009)

Biological target: T1, human capsaicin receptor (Homo sapiens, UniProt Q8NER1)
T1 construct: pBK-CMV expression construct encoding the full length human capsaicin receptor; expressed in transfected cells
Assay: Calcium mobilization assay, determination of antagonist activity (Example 6)
Assay type: cell-based
Details: Table II; IC50 determined as described in Example 6
Method in brief: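 HEK293 clonal lines stably expressing full-length human capsaicin receptor, loaded with Fluo-3 AM in KRH buffer pH 7.4, 1–2 h at 37 °C. Compounds (1–5 μM final) preincubated 0.5–6 h at room temperature, then capsaicin at its EC50 added. FLIPR/Fluoroskan calcium signal; IC50 as 50% decrease of capsaicin response.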

T1 sequence (Q8NER1 whole entry): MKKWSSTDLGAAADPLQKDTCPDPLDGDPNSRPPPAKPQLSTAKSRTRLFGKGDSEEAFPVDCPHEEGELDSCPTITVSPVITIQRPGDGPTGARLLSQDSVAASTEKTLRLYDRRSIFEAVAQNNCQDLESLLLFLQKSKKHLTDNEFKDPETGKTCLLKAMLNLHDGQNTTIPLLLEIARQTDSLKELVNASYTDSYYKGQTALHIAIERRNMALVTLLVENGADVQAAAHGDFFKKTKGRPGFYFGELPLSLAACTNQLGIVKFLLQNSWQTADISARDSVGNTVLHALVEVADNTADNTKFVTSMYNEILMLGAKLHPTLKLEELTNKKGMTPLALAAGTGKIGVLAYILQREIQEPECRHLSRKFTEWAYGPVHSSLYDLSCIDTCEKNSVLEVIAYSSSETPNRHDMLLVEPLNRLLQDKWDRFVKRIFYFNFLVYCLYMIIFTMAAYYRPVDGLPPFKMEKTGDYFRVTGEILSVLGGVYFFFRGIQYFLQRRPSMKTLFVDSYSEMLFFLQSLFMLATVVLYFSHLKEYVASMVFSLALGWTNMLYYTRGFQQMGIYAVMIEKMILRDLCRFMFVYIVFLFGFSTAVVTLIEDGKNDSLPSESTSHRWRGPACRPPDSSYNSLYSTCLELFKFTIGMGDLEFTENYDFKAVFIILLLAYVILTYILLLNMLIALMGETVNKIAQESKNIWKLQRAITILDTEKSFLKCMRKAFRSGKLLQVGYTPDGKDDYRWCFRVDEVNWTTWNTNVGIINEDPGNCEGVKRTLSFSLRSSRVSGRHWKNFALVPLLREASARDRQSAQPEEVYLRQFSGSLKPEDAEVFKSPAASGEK

IC50, ≤ 1000 nM:
NC(=O)[C@@H]1CCCN1c1nc(-c2ccc(F)c(Cl)c2)cc(N2CCN(c3ncccc3C(F)(F)F)CC2)n1 [Example 567, 1-(4-(3-chloro-4-fluorophenyl)-6-{4-[3-(trifluoromethyl)pyridin-2-yl]piperazin-1-yl}pyrimidin-2-yl)-L-prolinamide]
Cc1cccnc1N1CCN(c2cc(-c3cccc4ccccc34)nc(N3CCOCC3)n2)[C@H](C)C1 [Example 521, 4-[4-[(2R)-2-methyl-4-(3-methylpyridin-2-yl)piperazin-1-yl]-6-(1-naphthyl)pyrimidin-2-yl]morpholine]
Fc1ccc(-c2cc(N3CCN(c4ncccc4C(F)(F)F)CC3)nc(O[C@H]3CCOC3)n2)cc1Cl [Example 545, 4-(3-chloro-4-fluorophenyl)-2-[(3S)-tetrahydrofuran-3-yloxy]-6-{4-[3-(trifluoromethyl)pyridin-2-yl]piperazin-1-yl}pyrimidine]
C[C@@H]1CN(c2ncccc2C#N)CCN1c1cc(-c2ccc(C(C)(C)C)cc2)nc(N2CCOCC2)n1 [Example 518, 2-{(3R)-4-[6-(4-tert-butylphenyl)-2-morpholin-4-ylpyrimidin-4-yl]-3-methylpiperazin-1-yl}nicotinonitrile]
CCCCN1CCN(c2nc(-c3ccc(F)c(C)c3)nc(N3CCN(c4ncccc4C(F)(F)F)CC3)n2)CC1 [Example 452, 2-(4-butylpiperazin-1-yl)-4-(4-fluoro-3-methylphenyl)-6-{4-[3-(trifluoromethyl)pyridin-2-yl]piperazin-1-yl}-1,3,5-triazine]
Fc1ccc(-c2nc(N3CCOCC3)nc(N3CCN(c4ccccn4)CC3)n2)c(F)c1 [Example 423, 2-(2,4-difluorophenyl)-4-morpholin-4-yl-6-(4-pyridin-2-ylpiperazin-1-yl)-1,3,5-triazine]
COc1cccc(-c2cc(N3CCN(c4ncccc4C(F)(F)F)C[C@H]3C)nc(N3CCOCC3)n2)c1 [Example 525, 4-(4-(3-methoxyphenyl)-6-{(2R)-2-methyl-4-[3-(trifluoromethyl)pyridin-2-yl]piperazin-1-yl}pyrimidin-2-yl)morpholine]

Same assay, conditions: Table II; IC50 determined as described in Example 6 (antagonist activity, calcium mobilization)

IC50, ≤ 1000 nM:
Cc1ccc(-c2cc(N3CCN(c4ncccc4Cl)C[C@H]3C)nc(N3CCC[C@@H]3C)n2)cc1Cl [Example 999, 4-(3-ohloro-4-methylphenyl)-6-[(2R)-4-(3-chloropyridin-2-yl)-2-methylpiperazin-1-yl]-2-[(2S)-2-methylpyrrolidin-1-yl]pyrimidine]
Cc1ccc(-c2cc(N3CCN(c4ncccc4Cl)C[C@H]3C)nc(N3CCC[C@H]3C)n2)cc1F [Example 979, 4-[(2R)-4-(3-chloropyridin-2-yl)-2-methylpiperazin-1-yl]-6-(3-fluoro-4-methylphenyl)-2-[(2R)-2-methylpyrrolidin-1-yl]pyrimidine]
CNc1ccc(Cl)c(N2CCN(c3cc(-c4ccc(F)cc4)nc(N4CCCC4C)n3)[C@H](C)C2)n1 (stereo partly drawn) [Example 1012, 5-chloro-6-{4-[6-(4-fiuorophenyl)-2-(2-methylpyrrolidin-1-yl)pyrimidin-4-yl]-3-methylpiperazin-1-yl}-N-methylpyridin-2-amine]

Same assay, conditions: Table II; determined as described in Example 6 (antagonist activity); "*" = 1 micromolar or less

IC50, ≤ 1000 nM:
Cc1ccc(-c2cc(N3CCN(c4ncccc4Cl)C[C@H]3C)nc(N3CCCC3)n2)cc1F [Example 802]
Cc1cc(-c2cc(N3CCN(c4ncccc4Cl)C[C@@H]3C)nc(N3CCCC3)n2)ccc1F [Example 902, 4-[(2S)-4-(3-chloropyridin-2-yl)-2-methylpiperazin-1-yl]-6-(4-fluoro-3-methylphenyl)-2-pyrrolidin-1-ylpyrimidine]
CC1CCCN1c1nc(-c2ccc(F)c(Cl)c2)cc(N2CCN(c3ncccc3Cl)CC2=O)n1 (stereo not drawn) [Example 853, 1-[6-(3-chloro-4-fluorophenyl)-2-(2-methylpyrrolidin-1-yl)pyrimidin-4-yl]-4-(3-chloropyridin-2-yl)piperazin-2-one]
Cc1cc(-c2cc(N3CCN(c4nccnc4Cl)C[C@H]3C)nc(N3CCCC3C)n2)ccc1F (stereo in doubt) [Example 915, 4-[4-(3-chloropyrazin-2-yl)-2-methylpiperazin-1-yl]-6-(4-fluoro-3-methylphenyl)-2-(2-methylpyrrolidin-1-yl)pyrimidine]
Fc1ccc(-c2cc(N3CCN(c4ncccc4C(F)(F)F)CC3)nc(C3CCNCC3)n2)cc1Cl [Example 871, 4-(3-chloro-4-fluorophenyl)-2-piperidin-4-yl-6-{4-[3-(trifluoromethyl)pyridin-2-yl]piperazin-1-yl}pyrimidine]
C[C@@H]1CN(c2ncccc2Cl)CCN1c1cc(-c2ccc(Cl)c(F)c2)nc(N2CCOCC2)n1 [Example 835, 4-{4-(4-chloro-3-fluorophenyl)-6-[(2R)-4-(3-chloropyridin-2-yl)-2-methylpiperazin-1-yl]pyrimidin-2-yl}morpholine]
OCCCc1cccc(-c2cc(N3CCN(c4ncccc4C(F)(F)F)CC3)nc(N3CCOCC3)n2)c1 [Example 850, 3-[3-(2-morpholin-4-yl-6-{4-[3-(trifluoromethyl)pyridin-2-yl]piperazan-1-yl}pyrimidin-4-yl)phenyi]propan-1-ol]
Cc1cc(-c2cc(N3CCCC3C)nc(N3CCN(c4ncccc4Cl)C[C@@H]3C)n2)ccc1F (stereo partly drawn) [Example 917, 2-[4-(3-chloropyridin-2-yl)-2-methylpiperazin-1-yl]-4-(4-fluoro-3-methylphenyl)-6-(2-methylpyrrolidin-1-yl)pyrimidine]
CC1CCCN1c1cc(-c2ccc(F)c(Cl)c2)nc(N2CCN(c3nccnc3Cl)C[C@H]2C)n1 (stereo partly drawn) [Example 911]
COC[C@@H]1CCCN1c1nc(-c2cncc(Cl)c2)cc(N2CCN(c3ncccc3Cl)C[C@H]2C)n1 [Example 854, 4-(5-chloropyridin-3-yl)-6-[(2R)-4-(3-chloropyridin-2-yl)-2-methylpiperazin-1-yl]-2-[(2S)-2-(methoxymethyl)pyrrolidin-1-yl]pyrimidine]

Same assay, conditions: determined as described in Example 6 (calcium mobilization, antagonist activity); Table II

IC50, ≤ 1000 nM:
Cc1cc(-c2cc(N3CCN(c4ncccc4C(F)(F)F)CC3)nc(N(CCO)C(C)C)n2)ccc1F [Example 687, 2-[(4-(4-fluoro-3-methylphenyl)-6-{4-[3-(trifluoromethyl)pyridin-2-yl]piperazin-1-yl}pyrimidin-2-yl)(isopropyl)amino]ethanol]
O=C1CN(c2nc(-c3ccc(F)c(Cl)c3)cc(N3CCN(c4ncccc4C(F)(F)F)CC3)n2)CCN1 [Example 654, 4-(4-(3-chloro-4-fluorophenyl)-6-{4-[3-(trifluoromethyl)pyridin-2-yl]piperazin-1-yl}pyrimidin-2-yl)piperazin-2-one]
CC1CCC(C)N1c1nc(-c2ccc(F)c(Cl)c2)cc(N2CCN(c3ncccc3C(F)(F)F)CC2)n1 (stereo not drawn) [Example 669, 4-(3-chloro-4-fluorophenyl)-2-(2,5-dimethylpyrrolidin-1-yl)-6-{4-[3-(trifluoromethyl)pyridin-2-yl]piperazin-1-yl}pyrimidine]
COC[C@@H]1CCCN1c1nc(-c2ccc(F)c(Cl)c2)cc(N2CCN(c3ncccc3Cl)C[C@H]2C)n1 [Example 735, 4-(3-chloro-4-fluorophenyl)-6-[(2R)-4-(3-chloropyridin-2-yl)-2-methylpiperazin-1-yl]-2-[(2S)-2-(methoxymethyl)pyrrolidin-1-yl]pyrimidine]
Cc1cc(-c2cc(N3CCN(c4ncccc4C(F)(F)F)CC3)nc(N3CCNC(C)C3)n2)ccc1F (stereo not drawn) [Example 641, 4-(4-fluoro-3-methylphenyl)-2-(3-methylpiperazin-1-yl)-6-{4-[3-(trifluoromethyl)pyridin-2-yl]piperazin-1-yl}pyrimidine]
CC(C)c1nccn1-c1nc(-c2ccc(F)c(Cl)c2)cc(N2CCN(c3ncccc3C(F)(F)F)CC2)n1 [Example 651, 4-(3-chloro-4-fluorophenyl)-2-(2-isopropyl-1H-imidazo-1-yl)-6-{4-[3-(trifluoromethyl)pyridin-2-yl]piperazin-1-yl}pyrimidine]
Cc1cc(-c2cc(N3CCN(c4ncccc4C(F)(F)F)CC3)nc(N3CCN(C(C)C)CC3)n2)ccc1F [Example 716, 4-(4-fluoro-3-methylphenyl)-2-(4-isopropylpiperazin-1-yl)-6-{4-[3-(trifluoromethyl)pyridin-2-yl]piperazin-1-yl}pyrimidine]
Fc1ccc(-c2cc(N3CCN(c4ncccc4C(F)(F)F)CC3)nc(N3CCN(c4ncccc4C(F)(F)F)CC3)n2)cc1Cl [Example 673, 4-(3-chloro-4-fluorophenyl)-2,6-bis{4-[3-(trifluoromethyl)pyridin-2-yl]piperazin-1-yl}pyrimidine]
CCOc1cc(-c2cc(N3CCN(c4ncccc4C(F)(F)F)CC3)nc(N3CCOCC3)n2)ccn1 [Example 577, 4-(4-(2-ethoxypyridin-4-yl)-6-{4-[3-(trifluoromethyl)pyridin-2-yl]piperazin-1-yl}pyrimidin-2-yl)morpholine]
CCc1nc(C)cn1-c1nc(-c2cccc(Cl)c2)cc(N2CCN(c3ncccc3C(F)(F)F)CC2)n1 [Example 647, 4-(3-chlorophenyl)-2-(2-ethyl-4-methyl-1H-imidazol-1-yl)-6-(4-[3-(trifluoromethyl)pyridin-2-yl]piperazin-1-yl}pyrimidine]
